Tests used:
CCRF-CEM = assay: Growth inhibition of human CCRF-CEM cells at 10 uM relative to control; type: functional
BT-549 = assay: Antiproliferative activity against human BT549 cells after 72 hrs by alamar blue assay; type: functional, cell-based; details: BT-549, 72 h
786-0 = assay: Growth inhibition of human 786-0 cells at 10 uM relative to control; type: functional
A549 = assay: Growth inhibition of human A549 cells at 10 uM relative to control; type: functional
SNB-75 = assay: Growth inhibition of human SNB75 cells at 10 uM relative to control; type: functional
MOLT-4 = assay: Growth inhibition of human MOLT4 cells at 10 uM relative to control; type: functional
UACC-257 = assay: Growth inhibition of human UACC257 cells at 10 uM relative to control; type: functional
Jurkat = assay: Antiproliferative activity against human Jurkat cells after 72 hrs by Alamar Blue assay; type: functional, cell-based
MCF7 = assay: Growth inhibition of human MCF7 cells at 10 uM relative to control; type: functional
SK-MEL-28 = assay: Growth inhibition of human SK-MEL-28 cells at 10 uM relative to control; type: functional
HT-29 = assay: Growth inhibition of human HT29 cells at 10 uM relative to control; type: functional
CAKI-1 = assay: Growth inhibition of human CAKI1 cells at 10 uM relative to control; type: functional
HCT-116 = assay: Growth inhibition of human HCT116 cells at 10 uM relative to control; type: functional
T47D = assay: Growth inhibition of human T47D cells at 10 uM relative to control; type: functional
SW480 = assay: Antiproliferative activity against human SW480 cells after 72 hrs by Alamar Blue assay; type: functional, cell-based; details: SW480, 72 h
BT-20 = assay: Antiproliferative activity against human BT20 cells after 72 hrs by Alamar Blue assay; type: functional, cell-based; details: BT-20, 72 h
HOP-92 = assay: Growth inhibition of human HOP92 cells at 10 uM relative to control; type: functional
[1] = Growth inhibition of human HL60(TB) cells at 10 uM relative to control; type: functional, HL-60(TB); details: HL-60
SF-295 = assay: Growth inhibition of human SF295 cells at 10 uM relative to control; type: functional

## O=C1CC(C(F)(F)F)Cc2nc3ccc(Cl)cc3c(-c3ccccc3Cl)c21 (centres undefined)
CCRF-CEM
  inhibition at 10 µM: 60%
BT-549
  IC50: 39.3 µM
786-0
  inhibition at 10 µM: < 20%
A549
  inhibition at 10 µM: 50%
SNB-75
  inhibition at 10 µM: < 20%
MOLT-4
  inhibition at 10 µM: 46%
UACC-257
  inhibition at 10 µM: < 20%
Jurkat
  IC50: 87.6 µM
MCF7
  inhibition at 10 µM: < 20%
SK-MEL-28
  inhibition at 10 µM: < 20%
HT-29
  inhibition at 10 µM: < 20%
CAKI-1
  inhibition at 10 µM: < 20%
HCT-116
  inhibition at 10 µM: 38%
T47D
  inhibition at 10 µM: < 20%
SW480
  IC50: 21.3 µM
BT-20
  IC50: 42.1 µM
HOP-92
  inhibition at 10 µM: 38%
[1]
  inhibition at 10 µM: < 20%
SF-295
  inhibition at 10 µM: < 20%

## Cc1c2c(nc3cc4c(cc13)OCO4)CC(C(F)(F)F)CC2=O (centres undefined)
CCRF-CEM
  inhibition at 10 µM: < 20%
786-0
  inhibition at 10 µM: < 20%
A549
  inhibition at 10 µM: 67%
SNB-75
  inhibition at 10 µM: 25%
MOLT-4
  inhibition at 10 µM: < 20%
UACC-257
  inhibition at 10 µM: < 20%
MCF7
  inhibition at 10 µM: < 20%
SK-MEL-28
  inhibition at 10 µM: < 20%
HT-29
  inhibition at 10 µM: < 20%
CAKI-1
  inhibition at 10 µM: < 20%
HCT-116
  inhibition at 10 µM: < 20%
T47D
  inhibition at 10 µM: < 20%
HOP-92
  inhibition at 10 µM: < 20%
[1]
  inhibition at 10 µM: < 20%
SF-295
  inhibition at 10 µM: 32%
